These are literature values, as cited in patent US10952984B2, “All-trans retinoic acid injectant and application” (HIGHFIELD BIOPHARMACEUTICAL CORPORATION, priority 2016, dated 2021).

Broadly, the bioavailability is dose-corrected exposure relative to a reference, in per cent.

Test in series [1]: not given
The source holds these as a separate data set.

SMILES strings stand for the structures. ≈ marks a conversion by molar mass, not a printed value.

Regarding `CC1=C(/C=C/C(C)=C/C=C/C(C)=C/C(=O)O)C(C)(C)CCC1` [all-trans retinoic acid], the water solubility was 4.77 µg/mL (≈ 15.9 µM). The “solubility of the all-trans retinoic acid in the prior art” value (prior art) is 10 µg/mL. Further, in series [1] (oral dosage forms, clinical studies), the bioavailability was not above 30%. The plasma half-life result in series [1] (prior art) is given as “short”.
